The CheMixHub viscosity set

Assay: xn = mol fraction of the nth substance listed

CCCCCCCCCO + COC(=O)OC
Details	viscosity [mPa·s]
293.15 K, 101 kPa, x1 = 0.008	0.63
293.15 K, 101 kPa, x2 = 0.06435	9.044
293.15 K, 101 kPa, x2 = 0.1251	7.282
293.15 K, 101 kPa, x2 = 0.2318	5.067
293.15 K, 101 kPa, x2 = 0.322	3.834
293.15 K, 101 kPa, x2 = 0.4095	2.962
293.15 K, 101 kPa, x2 = 0.4994	2.281
293.15 K, 101 kPa, x2 = 0.6032	1.706
293.15 K, 101 kPa, x2 = 0.699	1.3
293.15 K, 101 kPa, x2 = 0.7961	0.991
293.15 K, 101 kPa, x2 = 0.8901	0.776
303.15 K, 100 kPa, x2 = 0.1	5.632
303.15 K, 100 kPa, x2 = 0.1999	4.161
303.15 K, 100 kPa, x2 = 0.3	3.081
303.15 K, 100 kPa, x2 = 0.4	2.342
303.15 K, 100 kPa, x2 = 0.5	1.81
303.15 K, 100 kPa, x2 = 0.6	1.384
303.15 K, 100 kPa, x2 = 0.7	1.06
303.15 K, 100 kPa, x2 = 0.8	0.831
303.15 K, 100 kPa, x2 = 0.9	0.658
303.15 K, 101 kPa, x1 = 0.00584	0.55
303.15 K, 101 kPa, x2 = 0.04989	6.721
303.15 K, 101 kPa, x2 = 0.1183	5.358
303.15 K, 101 kPa, x2 = 0.2164	3.942
303.15 K, 101 kPa, x2 = 0.3115	2.991
303.15 K, 101 kPa, x2 = 0.4106	2.28
303.15 K, 101 kPa, x2 = 0.4935	1.832
303.15 K, 101 kPa, x2 = 0.6036	1.368
303.15 K, 101 kPa, x2 = 0.7016	1.059
303.15 K, 101 kPa, x2 = 0.7951	0.835
303.15 K, 101 kPa, x2 = 0.8982	0.657
308.15 K, 100 kPa, x2 = 0.1	4.801
308.15 K, 100 kPa, x2 = 0.1999	3.592
308.15 K, 100 kPa, x2 = 0.3	2.702
308.15 K, 100 kPa, x2 = 0.4	2.074
308.15 K, 100 kPa, x2 = 0.5	1.627
308.15 K, 100 kPa, x2 = 0.6	1.253
308.15 K, 100 kPa, x2 = 0.7	0.972
308.15 K, 100 kPa, x2 = 0.8	0.769
308.15 K, 100 kPa, x2 = 0.9	0.617
313.15 K, 100 kPa, x2 = 0.1	4.133
313.15 K, 100 kPa, x2 = 0.1999	3.123
313.15 K, 100 kPa, x2 = 0.3	2.398
313.15 K, 100 kPa, x2 = 0.4	1.848
313.15 K, 100 kPa, x2 = 0.5	1.467
313.15 K, 100 kPa, x2 = 0.6	1.141
313.15 K, 100 kPa, x2 = 0.7	0.893
313.15 K, 100 kPa, x2 = 0.8	0.713
313.15 K, 100 kPa, x2 = 0.9	0.579
313.15 K, 101 kPa, x1 = 0.00538	0.492
313.15 K, 101 kPa, x2 = 0.06799	4.566
313.15 K, 101 kPa, x2 = 0.1245	3.835
313.15 K, 101 kPa, x2 = 0.2254	2.876
313.15 K, 101 kPa, x2 = 0.2945	2.39
313.15 K, 101 kPa, x2 = 0.433	1.677
313.15 K, 101 kPa, x2 = 0.5255	1.342
313.15 K, 101 kPa, x2 = 0.6009	1.118
313.15 K, 101 kPa, x2 = 0.6997	0.882
313.15 K, 101 kPa, x2 = 0.8024	0.702
313.15 K, 101 kPa, x2 = 0.9014	0.571
318.15 K, 100 kPa, x2 = 0.1	3.586
318.15 K, 100 kPa, x2 = 0.1999	2.735
318.15 K, 100 kPa, x2 = 0.3	2.137
318.15 K, 100 kPa, x2 = 0.4	1.662
318.15 K, 100 kPa, x2 = 0.5	1.317
318.15 K, 100 kPa, x2 = 0.6	1.04
318.15 K, 100 kPa, x2 = 0.7	0.823
318.15 K, 100 kPa, x2 = 0.8	0.665
318.15 K, 100 kPa, x2 = 0.9	0.545
323.15 K, 100 kPa, x2 = 0.1	3.119
323.15 K, 100 kPa, x2 = 0.1999	2.397
323.15 K, 100 kPa, x2 = 0.3	1.888
323.15 K, 100 kPa, x2 = 0.4	1.494
323.15 K, 100 kPa, x2 = 0.5	1.199
323.15 K, 100 kPa, x2 = 0.6	0.951
323.15 K, 100 kPa, x2 = 0.7	0.763
323.15 K, 100 kPa, x2 = 0.8	0.621
323.15 K, 100 kPa, x2 = 0.9	0.514

CCCCCCCC[n+]1ccn(C)c1.F[B-](F)(F)F + COC(C)=O
Details	viscosity [mPa·s]
298.15 K, 101 kPa, x1 = 0.7036	69.93

C1CCCCCCCCCCC1 + Cc1ccccc1
303 K, 101 kPa
Details	viscosity [mPa·s]
x1 = 0.0186	0.5245
x2 = 0.8099	0.6724
x2 = 0.9012	0.5699
x2 = 0.9426	0.5336

Cc1cccc2ccccc12 + Cc1ccccc1
viscosity [mPa·s], 100 kPa
Details	x2 = 0.2784	x2 = 0.6068	x2 = 0.8224
298.15 K	1.646	1.036	0.731
313.15 K	1.285	0.841	0.608

O=[N+]([O-])c1ccccc1O + Cc1ccccc1
viscosity [mPa·s], 101 kPa
Details	303.15 K	308.15 K	313.15 K	318.15 K	323.15 K
x1 = 0.5473	1.278	1.182	1.088	1.011	0.942
x1 = 0.7633	–	1.838	1.672	1.528	1.411
